{"source": "patent US8476290B2", "about": "“Compound having spiro-bonded cyclic group and use thereof” (Ono Pharmaceutical Co., Ltd., priority 2009, dated 2013)", "key": {"[1]": {"system": "CHL/IU (cell line derived from a Chinese hamster lung)", "assay": "Phospholipid accumulation measurement (phospholipidosis induction)", "format": "cell-based", "details": "NBD-PE, about 48 hours, at 400 μM (maximum treatment concentration); positive = 25% or more of maximum increase rate of amiodarone", "experimental": "100 µL/well as required (1 dose 2 wells) of cell suspension of CHL/IU (cell line derived from a Chinese hamster lung) (7×10^4 cells/mL) prepared by MEM (minimum essential medium) culture medium was added to a 96-well plate (96-well clear-bottom plate), and cultured for about 24 hours. After culture, the supernatant of the 96-well plate was removed, and the 100 μL/well compounds of each concentration dissolved and suspended in a minimum essential medium (MEM) including 25 μM nitrobenzoxazole dipalmitoyl phosphatidylethanolamine (NBD-PE) (hereinafter abbreviated to a NPD-PE medium) were added and treated for about 48 hours. The treatment concentrations of each compound were set to be 5, 50, 100, 200 and 400 μM. The positive control substance was set to be amiodarone hydrochloride, and the treatment concentrations were set to be 1.25, 2.5, 5, 10 and 20 μM. In addition, 5-well untreated controls (only MEM) and 5-well NBD-PE controls (made by means of adding a 1/100 amount of DMSO to the NBD-PE culture medium) were set per compound, and cultured in the same manner. After finishing the culture, the cultures were washed twice with PBS (−) 100 μL/well, and the MEM (100 μL) was added to all of the treatment wells including two empty wells for WST-1 background controls and cultured for about half an hour. The fluorescence intensities of each well were measured by using a microplate reader (manufactured by Molecular Devices Inc., SPECTRA max M2; the excitation wavelength 485 nm/fluorescence wavelength 535 nm). Using the average values of each dose×2 wells, a phospholipid increase rate (%) to the NBD-PE control was calculated by using the following calculating formula: Rate of increase of phospholipid accumulation (%)=100×{(test substance fluorescence intensity−non-treated control fluorescence intensity)/(NBD-PE control fluorescence intensity−non-treated control fluorescence intensity)} 3. Cytotoxicity Test 96-well plate measured in the phospholipid accumulation measurement was measured by means of Plate Reader (manufactured by Molecular Devices Inc., SPECTRA max M2) with the main wavelength of 450 nm and the correct wavelength of 690 nm to calculate a Pre value. An amount of 5 μL/well of Premix WST-1 was added to each of the 96-well plates by which Pre measurement was conducted. After culture for 2 to 4 hours, the 96-well plate was measured as well as the Pre measurement to calculate an Aft value. Then, the background control value was subtracted from the each measured value. A value which was calculated by subtracting the Pre value from the Aft value was used, then the cell growth rate (%) was calculated by using the following calculating formula: Cell growth rate (%)=100×{(test substance OD)/(NBD-PE control OD)} 4. Determination A test dose that indicated value of 25% or more of the maximum phospholipid accumulation increase rate of amiodarone which was the positive control was determined as positive. In addition, the dose whose cell growth rate was equal to or less than 50% in the cytotoxicity test was not used for determination of existence or nonexistence of a phospholipidosis inductive effect."}, "[2]": {"assay": "Blood kinetic test and time (T90) to maintain the IC90 value", "format": "in vivo, Crl:CD(SD) Rat", "details": "time the plasma concentration stays at the PBMC IC90 value or more; rat, intravenous 1 mg/kg", "experimental": "A test compound was weighed, dissolved in WellSolve (trade name; manufactured by Celeste Corporation)/water/physiological saline=1/9/10 which was heated at 60° C. and adjusted to 20 mg/mL. Thereafter, the test compound was diluted by 10 times with distilled water for injection, and further diluted by 2 times with physiological saline. Then, intravenous administration was performed by rapid single administration of an intravenously administered solution (1 mg/kg) from the tail vein of Crl:CD(SD) Rat (male, manufactured by CHARLES RIVER LABORATORIES JAPAN, INC). The administration is conducted under fasting conditions; water is freely ingested. A 0.35 mL blood sample is taken from cervical vein by using Heparinized Syringe at 5 minutes, 15 minutes, 30 minutes, 1 hour, 2 hours, 4 hours, 6 hours, 8 hours, and 24 hours after administration. The obtained blood is stored in ice, and after centrifugation at 12,000 rpm for 5 minutes, blood plasma is fractionated. An internal standard solution (100 μL) and acetonitrile (2 mL) was added to 100 μL of plasma, followed by stirring and further centrifugation at 2,500 rpm for 10 minutes. The supernatant was desiccated by a centrifugal thickener and then 150 μL of an aqueous 67% dimethyl sulfoxide solution was added to the residue thereby dissolving again the residue, and 20 μL of the resultant solution was analyzed by LC/MS/MS.\nAnalysis by LC/MS/MS was carried out under the following conditions.\nA curve of the compound concentration in plasma versus the time of each compound was adapted to a 1 or 2 compartment model using pharmacokinetic analysis software WinNonlin (trade name) (ver4.0.1, Pharsight Corporation)."}, "[3]": {"system": "X4-HIV-1 strains (for example, HIV-1NL4.3 strains)", "assay": "HIV infection inhibitory test using PBMC", "format": "cell-based", "details": "human PBMC stimulated with PHA and IL-2, culture 7 days, culture supernatant", "experimental": "Human PBMC (peripheral blood mononuclear cells) was isolated from HIV-negative healthy persons and subjected to stimulated culture in the presence of PHA (Phytohemagulutinin) and IL-2. Stimulated PBMC was inoculated in each of 96-well microplates and X^4-HIV-1 strains (for example, HIV-1NL4.3 strains) were exposed in the co-presence of a test compound. After culturing for 7 days, a reverse transcriptase activity of HIV-1 in the culture supernatant was measured and an inhibitory ratio (%) of the test compound was calculated by the following calculation formula, and a concentration (IC90 value) showing a 90% inhibitory ratio was determined. Inhibition={(Et−Ec)/Et}×100 [Equation 1] Et: reverse transcriptase activity value in the absence of a test compound Ec: reverse transcriptase activity value in the presence of a test compound"}, "[4]": {"target": "T1, CXCR4 (Homo sapiens, UniProt P61073)", "T1 construct": "a human T cell strain in which CXCR4 is known to be expressed; endogenous in cells; host or cells: CEM cells (human T cell strain)", "T1 sequence (P61073 whole entry)": "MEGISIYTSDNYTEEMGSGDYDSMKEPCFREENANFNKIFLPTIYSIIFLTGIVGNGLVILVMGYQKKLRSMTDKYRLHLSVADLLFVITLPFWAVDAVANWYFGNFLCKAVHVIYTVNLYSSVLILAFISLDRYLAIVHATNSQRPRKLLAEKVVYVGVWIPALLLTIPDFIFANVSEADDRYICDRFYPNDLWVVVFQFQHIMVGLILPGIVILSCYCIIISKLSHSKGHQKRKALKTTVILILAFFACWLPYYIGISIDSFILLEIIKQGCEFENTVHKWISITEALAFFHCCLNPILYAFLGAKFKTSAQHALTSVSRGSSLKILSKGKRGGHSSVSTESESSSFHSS", "assay": "Inhibition of binding human SDF-1 to CEM cells", "details": "125I-SDF-1, CEM cells, 4° C., 60 minutes; read-out: concentration showing 50% of an inhibition ratio", "experimental": "Specifically, as a system of screening a compound that inhibits the binding between SDF-1 and CXCR4, for example a system of measuring the binding between iodine-labeled SDF-1 and a human T cell strain in which CXCR4 is known to be expressed is operable.\nTo human T cell strain CEM cells in a binding buffer (containing 2-[4-(2-Hydroxyethyl)-1-piperadinyl]ethansulfonic acid; HEPES and BSA), the test compound and ^125I-SDF-1 (PerkinElmer) were added and the mixture was incubated at 4° C. for 60 minutes. The reacted CEM cells were rapidly filtrated with a GF/B membrane filter plate (Packard) to adsorb. The plate was washed with phosphate buffered saline (hereinafter abbreviated to PBS) three times and then dried. Microscint+20 (Packard) was added thereto. An amount of the radioactivity bound to the CEM cells was measured using Top Count (Packard) and inhibition ratio (%) of the test compound was calculated according to the following equation: Inhibition={(Et−Ea)/(Et−Ec)}×100 [Equation 2] Et: Amount of radioactivity when the test compound is not added, Ec: Amount of radioactivity when non-radioactive SDF-1 (Pepro Tech) is added in an amount of 1,000 times as much as ^125I-SDF-1 as a test compound, and Ea: Amount of radioactivity when the test compound is added."}}, "data": [{"compound": "CCC(CC)N1CCC2(CC1)CC(C(=O)O)N(Cc1ccc(CN(Cc3ncc[nH]3)Cc3ncc[nH]3)cc1)C2", "note": "(centres unmarked) [Example 5(5), 2-(4-{[bis(1H-imidazol-2-ylmethyl)amino]methyl}benzyl)-8-(1-ethylpropyl)-2,8-diazaspiro[4.5]decane-3-carboxylic acid]", "values": [{"measurement": "phospholipidosis induction activity (determination)", "setting": "[1]", "value": "negative"}, {"measurement": "T90", "setting": "[2]", "value": 91, "unit": "h"}, {"measurement": "IC90 value (concentration showing a 90% inhibitory ratio of HIV-1 reverse transcriptase activity)", "setting": "[3]", "value": 0.27, "unit": "nM"}, {"measurement": "IC50", "setting": "[4]", "value": 3, "unit": "nM"}]}, {"compound": "CCC(CC)N1CCC2(CC1)C[C@H](C(=O)O)N(Cc1ccc(CN(Cc3ncc[nH]3)Cc3ncc[nH]3)cc1)C2", "note": "[Example 32(6), (3R)-2-(4-{[bis(1H-imidazol-2-ylmethyl)amino]methyl}benzyl)-8-(1-ethylpropyl)-2,8-diazaspiro[4.5]decane-3-carboxylic acid]", "values": [{"measurement": "phospholipidosis induction activity (determination)", "setting": "[1]", "value": "negative"}, {"measurement": "IC90 value (concentration showing a 90% inhibitory ratio of HIV-1 reverse transcriptase activity)", "setting": "[3]", "value": 0.27, "unit": "nM"}, {"measurement": "IC50", "setting": "[4]", "value": 3.3, "unit": "nM"}]}, {"compound": "CCC(CC)N1CCC2(CC1)C[C@@H](C(=O)O)N(Cc1ccc(CN(Cc3ncc[nH]3)Cc3ncc[nH]3)cc1)C2", "note": "[Example 32(7), (3S)-2-(4-{[bis(1H-imidazol-2-ylmethyl)amino]methyl}benzyl)-8-(1-ethylpropyl)-2,8-diazaspiro[4.5]decane-3-carboxylic acid]", "values": [{"measurement": "phospholipidosis induction activity (determination)", "setting": "[1]", "value": "negative"}, {"measurement": "IC90 value (concentration showing a 90% inhibitory ratio of HIV-1 reverse transcriptase activity)", "setting": "[3]", "value": 0.23, "unit": "nM"}, {"measurement": "IC50", "setting": "[4]", "value": 3.2, "unit": "nM"}]}, {"compound": "CCC(CC)N1CCC2(CC1)C[C@H](C(=O)O)N(Cc1ccc(CN(Cc3ncc[nH]3)Cc3nccn3C)cc1)C2", "note": "[Example 37(6), (3R)-8-(1-ethylpropyl)-2-[4-({(1H-imidazol-2-ylmethyl)[(1-methyl-1H-imidazol-2-yl)methyl]amino}methyl)benzyl]-2,8-diazaspiro[4.5]decane-3-carboxylic acid]", "values": [{"measurement": "phospholipidosis induction activity (determination)", "setting": "[1]", "value": "negative"}, {"measurement": "IC50", "setting": "[4]", "value": 11.3, "unit": "nM"}]}, {"compound": "CCC(CC)N1CCC2(CC1)C[C@@H](C(=O)O)N(Cc1ccc(CN(Cc3ncc[nH]3)Cc3nccn3C)cc1)C2", "note": "[Example 37(7), (3S)-8-(1-ethylpropyl)-2-[4-({(1H-imidazol-2-ylmethyl)[(1-methyl-1H-imidazol-2-yl)methyl]amino}methyl)benzyl]-2,8-diazaspiro[4.5]decane-3-carboxylic acid]", "values": [{"measurement": "phospholipidosis induction activity (determination)", "setting": "[1]", "value": "negative"}, {"measurement": "IC50", "setting": "[4]", "value": 11.1, "unit": "nM"}]}, {"compound": "CCC(CC)N1CCC2(CCN(Cc3ccc(CN(Cc4ncc[nH]4)Cc4ncc[nH]4)cc3)C2)CC1", "note": "[b, 1-(4-{[8-[1-ethylpropyl]-2,8-diazaspiro[4.5]deca-2-yl)methyl}phenyl]-N,N-bis(1H-imidazol-2-ylmethyl)methaneamine]", "values": [{"measurement": "T90", "setting": "[2]", "value": 12, "unit": "h"}]}, {"compound": "CCC(CC)N1CCC2(CC1)C[C@@H](C(N)=O)N(Cc1ccc(CN(Cc3ncc[nH]3)Cc3ncc[nH]3)cc1)C2", "note": "[c, (3S)-2-(4-{[bis(1H-imidazol-2-ylmethyl)amino]methyl}benzyl)-8-(1-ethylpropyl)-2,8-diazaspiro[4.5]decane-3-carboxyamide]", "values": [{"measurement": "T90", "setting": "[2]", "value": 7, "unit": "h"}]}, {"compound": "O=C(O)c1cc(CN(Cc2ncc[nH]2)Cc2ncc[nH]2)ccc1CN1CCC2(CCN(C3CCCCC3)CC2)C1", "note": "[d, 5-{[bis(1H-imidazol-2-ylmethyl)amino]methyl}-2-[(8-cyclohexyl-2,8-diazaspiro[4.5]deca-2-yl)methyl]benzenecarboxylic acid]", "values": [{"measurement": "T90", "setting": "[2]", "value": 5, "unit": "h"}]}, {"compound": "CCC(CC)N1CCC2(CC1)CN(Cc1ccc(CN(Cc3ncc[nH]3)Cc3ncc[nH]3)cc1)CC2C(=O)O", "note": "(centres unmarked) [e, 2-(4-{[bis(1H-imidazol-2-ylmethyl)amino]methyl}benzyl)-8-(1-ethylpropyl)-2,8-diazaspiro[4.5]decane-4-carboxylic acid]", "values": [{"measurement": "T90", "setting": "[2]", "value": 17, "unit": "h"}]}, {"compound": "CCC(CC)N1CCC2(CC1)CCN(Cc1ccc(CN(Cc3ncc[nH]3)Cc3ncc[nH]3)cc1)C2C(=O)O", "note": "(centres unmarked) [f, 2-(4-{[bis(1H-imidazol-2-ylmethyl)amino]methyl}benzyl)-8-(1-ethylpropyl)-2,8-diazaspiro[4.5]decane-1-carboxylic acid]", "values": [{"measurement": "T90", "setting": "[2]", "value": 6, "unit": "h"}]}, {"compound": "CC(C)CN1CCC2(CCN(Cc3ccc(CN(Cc4ncc[nH]4)Cc4ncc[nH]4)cc3)C2)CC1C(=O)O", "note": "(centres unmarked) [g, 2-(4-{[bis(1H-imidazol-2-ylmethyl)amino]methyl}benzyl)-8-isobutyl-2,8-diazaspiro[4.5]decane-7-carboxylic acid]", "values": [{"measurement": "T90", "setting": "[2]", "value": 2, "unit": "h"}]}, {"compound": "CCC(CC)N1CC2(CCN(Cc3ccc(CN(Cc4ncc[nH]4)Cc4ncc[nH]4)cc3)CC2)CC1C(=O)O", "note": "(centres unmarked) [h, 8-(4-{[bis(1H-imidazol-2-ylmethyl)amino]methyl}benzyl)-2-(1-ethylpropyl)-2,8-diazaspiro[4.5]decane-3-carboxylic acid]", "values": [{"measurement": "T90", "setting": "[2]", "value": 1.2, "unit": "h"}]}, {"compound": "CCCN(CC)CCCCN(CC(=O)O)Cc1ccc(CN(Cc2ncc[nH]2)Cc2nccn2C)cc1", "note": "[i]", "values": [{"measurement": "T90", "setting": "[2]", "value": 3, "unit": "h"}]}, {"compound": "CCOC(=O)C1CC2(CCN(Cc3ccc(C(=O)N(Cc4ncc[nH]4)Cc4ncc[nH]4)cc3)CC2)CN1C1CCCCC1", "note": "(centres unmarked) [j]", "values": [{"measurement": "T90", "setting": "[2]", "value": "<1", "unit": "h"}]}, {"compound": "COC(=O)c1cc(CN(Cc2ncc[nH]2)Cc2ncc[nH]2)ccc1CN1CCC2(CCN(Cc3sccc3C)CC2)C1", "note": "[k]", "values": [{"measurement": "T90", "setting": "[2]", "value": 14, "unit": "h"}]}, {"compound": "O=C(O)Cn1ccnc1CN(Cc1ccc(CN2CCC3(CCN(C4CCCCC4)CC3)C2)cc1)Cc1ncc[nH]1", "note": "[l]", "values": [{"measurement": "T90", "setting": "[2]", "value": 4, "unit": "h"}]}, {"compound": "CCC(CC)N1CCC2(CCN(CCCn3ccnc3CN(Cc3cccc(CC(=O)O)c3)Cc3ncc[nH]3)C2)CC1", "note": "[m]", "values": [{"measurement": "T90", "setting": "[2]", "value": 4, "unit": "h"}]}]}
